Experimental data reported in ChEMBL document CHEMBL2040720, “Potent CXCR4 antagonists containing amidine type Peptide bond isosteres” (ACS Med Chem Lett, 2011).
pEC50, pIC50: −log10 of the molar value. Calls of active or inactive are those of the source. The rule behind the calls is not given here.

Key:
[1] = system: Human immunodeficiency virus 1; assay: Antiviral activity against Human immunodeficiency virus 1 3B infected in human HeLa cells assessed as inhibition of viral replication after 48 hrs by MAGI assay; format: functional, organism-based
[2] = target: C-X-C chemokine receptor type 4 (Homo sapiens, UniProt P61073); assay: Displacement of [125I]-SDF-1alpha from CXCR4 receptor expressed in HEK293 cells after 1 hr by scintillation counting; format: cell-based
Sequence of C-X-C chemokine receptor type 4 (P61073 whole entry): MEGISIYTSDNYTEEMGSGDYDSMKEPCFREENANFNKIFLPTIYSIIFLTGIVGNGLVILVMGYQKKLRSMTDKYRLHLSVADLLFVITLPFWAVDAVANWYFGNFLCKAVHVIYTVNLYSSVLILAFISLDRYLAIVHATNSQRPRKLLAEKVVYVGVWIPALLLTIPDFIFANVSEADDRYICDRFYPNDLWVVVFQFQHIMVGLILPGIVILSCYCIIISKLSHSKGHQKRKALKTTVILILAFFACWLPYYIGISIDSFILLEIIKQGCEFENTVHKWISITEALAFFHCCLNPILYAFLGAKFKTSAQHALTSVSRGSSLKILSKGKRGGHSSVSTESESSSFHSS

[3] = system: Human immunodeficiency virus 1; assay: Antiviral activity against CCR5-tropic Human immunodeficiency virus 1 Ba-L infected in human HeLa cells assessed as inhibition of viral replication at 10 uM after 48 hrs by MAGI assay; format: functional, organism-based
HeLa = assay: Cytotoxicity against human HeLa cells at 10 uM by MAGI assay; format: cell-based
[4] = system: Human immunodeficiency virus 1; assay: Antiviral activity against Human immunodeficiency virus 1 NL4.3 infected in human HeLa cells assessed as inhibition of viral replication after 48 hrs by MAGI assay; format: functional, organism-based; conditions: Human immunodeficiency virus 1, NL4.3, HeLa
[5] = target: Atypical chemokine receptor 3 (Homo sapiens) (UniProt P25106); assay: Inhibition of CXCR7 interaction with SDF1alpha
Sequence of Atypical chemokine receptor 3 (Homo sapiens) (P25106 whole entry): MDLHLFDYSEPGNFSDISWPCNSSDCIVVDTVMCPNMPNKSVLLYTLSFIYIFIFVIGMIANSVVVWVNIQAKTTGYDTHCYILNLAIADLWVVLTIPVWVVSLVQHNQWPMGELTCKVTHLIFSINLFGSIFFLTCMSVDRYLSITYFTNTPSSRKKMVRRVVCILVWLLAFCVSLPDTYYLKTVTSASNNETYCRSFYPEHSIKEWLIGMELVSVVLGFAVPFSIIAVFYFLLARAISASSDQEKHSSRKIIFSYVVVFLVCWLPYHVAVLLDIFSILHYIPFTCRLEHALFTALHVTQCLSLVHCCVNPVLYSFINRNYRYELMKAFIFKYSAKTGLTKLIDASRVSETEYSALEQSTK

| pEC50 [1] | pIC50 [2] | pEC50 [4] | inhibition [5] | Compound | Activity [3] | Activity (HeLa) |
| --- | --- | --- | --- | --- | --- | --- |
| 9.00 | 8.38 | 8.85 | inactive | N=C(N)NCCC[C@@H]1NC(=O)[C@H](CCCNC(=N)N)NC(=O)[C@@H](Cc2ccc(O)cc2)NC(=O)CNC(=N)[C@H](Cc2ccc3ccccc3c2)NC1=O | inactive | Non-toxic |
| 6.62 | – | 6.61 | inactive | N=C(N)NCCC[C@@H]1NC(=N)[C@H](Cc2ccc(O)cc2)NC(=O)CNC(=O)[C@H](Cc2ccc3ccccc3c2)NC(=O)[C@H](CCCNC(=N)N)NC1=O | inactive | – |
| – | 6.48 | – | – | NC(N)=NCCC[C@@H]1N=C(N)[C@H](Cc2ccc(O)cc2)NC(=O)CNC(=O)[C@H](Cc2ccc3ccccc3c2)NC(=O)[C@H](CCCN=C(N)N)NC1=O | – | Non-toxic |
| – | 7.43 | – | – | CN1C(=O)[C@@H](Cc2ccc(O)cc2)NC(=O)CNC(=O)[C@H](Cc2ccc3ccccc3c2)NC(=O)[C@H](CCCN=C(N)N)NC(=O)[C@H]1CCCN=C(N)N | – | – |
| – | 7.80 | – | – | NC(N)=NCCC[C@@H]1N=C(N)[C@H](CCCN=C(N)N)NC(=O)[C@@H](Cc2ccc(O)cc2)NC(=O)CNC(=O)[C@H](Cc2ccc3ccccc3c2)NC1=O | – | Non-toxic |
| 9.21 | – | 8.89 | inactive | N=C(N)NCCC[C@@H]1NC(=O)[C@H](CCCNC(=N)N)NC(=O)[C@@H](Cc2ccc(O)cc2)NC(=N)CNC(=O)[C@H](Cc2ccc3ccccc3c2)NC1=O | inactive | – |

Continued, molecule first:

| Compound | pEC50 [1] | pIC50 [2] | pEC50 [4] | inhibition [5] | Activity [3] | Activity (HeLa) |
| --- | --- | --- | --- | --- | --- | --- |
| N=C(N)NCCC[C@@H]1NC(=O)[C@H](CCCNC(=N)N)NC(=O)[C@@H](Cc2ccc(O)cc2)NC(=O)CNC(=O)[C@H](Cc2ccc3ccccc3c2)NC1=N | 8.20 | – | 8.36 | inactive | inactive | – |
| N=C(N)NCCC[C@@H]1NC(=N)[C@@H](Cc2ccc(O)cc2)NC(=O)CNC(=O)[C@H](Cc2ccc3ccccc3c2)NC(=O)[C@H](CCCNC(=N)N)NC1=O | 6.59 | – | 6.52 | inactive | inactive | – |
| N=C(N)NCCC[C@@H]1NC(=O)[C@H](CCCNC(=N)N)NC(=O)[C@@H](Cc2ccc(O)cc2)NC(=O)CNC(=N)[C@@H](Cc2ccc3ccccc3c2)NC1=O | 8.70 | – | 8.66 | inactive | inactive | – |
| N=C(N)NCCC[C@@H]1NC(=O)[C@@H](Cc2ccc(O)cc2)NC(=O)CNC(=O)[C@H](Cc2ccc3ccccc3c2)NC(=O)[C@H](CCCNC(=N)N)NC1=N | 8.92 | – | 8.72 | inactive | inactive | – |
| NC(N)=NCCC[C@@H]1N=C(N)[C@@H](Cc2ccc(O)cc2)NC(=O)CNC(=O)[C@H](Cc2ccc3ccccc3c2)NC(=O)[C@H](CCCN=C(N)N)NC1=O | – | 6.17 | – | – | – | Non-toxic |
| NC(N)=NCCC[C@@H]1NC(=O)[C@H](CCCN=C(N)N)NC(=O)[C@@H](Cc2ccc(O)cc2)N=C(N)CNC(=O)[C@H](Cc2ccc3ccccc3c2)NC1=O | – | 8.03 | – | – | – | Non-toxic |
| N=C(N)NCCC[C@@H]1NC(=O)[C@H](CCCNC(=N)N)NC(=O)[C@@H](Cc2ccc(O)cc2)NC(=O)CNC(=O)[C@H](Cc2ccc3ccccc3c2)NC1=O | 7.68 | – | 7.68 | – | inactive | – |
| CN1C(=O)[C@@H](Cc2ccc(O)cc2)NC(=O)CNC(=O)[C@H](Cc2ccc3ccccc3c2)NC(=O)[C@H](CCCNC(=N)N)NC(=O)[C@H]1CCCNC(=N)N | 8.12 | – | 8.12 | – | inactive | – |
| NC(N)=NCCC[C@@H]1NC(=O)[C@H](CCCN=C(N)N)NC(=O)[C@@H](Cc2ccc(O)cc2)NC(=O)CN=C(N)[C@@H](Cc2ccc3ccccc3c2)NC1=O | – | 8.31 | – | – | – | Non-toxic |
| NC(N)=NCCC[C@@H]1NC(=O)[C@@H](Cc2ccc(O)cc2)NC(=O)CNC(=O)[C@H](Cc2ccc3ccccc3c2)N=C(N)[C@H](CCCN=C(N)N)NC1=O | – | 7.96 | – | – | – | Non-toxic |
